Laboratory results reported in patent publication US20220242872A1, “E3 LIGASE BINDERS AND USES THEREOF” (DANA-FARBER CANCER INSTITUTE, INC., priority 2019, published 2022).
Entries after “also recorded” stand apart in the source; their conditions may differ.

Legend:
IKZF3 = target: T1, IKZF3 (Homo sapiens, UniProt Q96SW2+Q9UKT9); test: 24 hour IKZF Western Blot in Jurkat cells (FIG. 5), IKZF3; assay type: cell-based
T1 construct: endogenous in cells; host or cells: Jurkat
Description: (§1) Exemplary close analogues had low activity against CRBN (FIG. 4). For the IKZF Western Blot, the cell is Jurkat, the exemplary compounds for treatment are JADA3, 32, 53, and lenalidomide, and the time point is 24 hours (FIG. 5).
(§2) Conditions for Western blot:
(§3) Jurkat cells were seeded in 6 well plates, followed by the compound treatment for 24 hours. Primary and secondary antibodies used included anti-IKZF1 at 1:1000 dilution, anti-IKZF2 at 1:1,000 dilution, anti-IKZF3 at 1:1000 dilution, anti-ACTIN at 1:5,000 dilution, IRDye®680 Donkey anti-mouse at 1:5,000 dilution (926-68072, LiCor®, Lot: C61116-05) and IRDye®800 Goat anti-rabbit at 1:5,000 dilution (926-32211, LiCor®, Lot: C70301-05).

CRBN [1] = target: T2, CRBN (Homo sapiens, UniProt Q96SW2); test: CRBN Fluorescence Polarization (FP) displacement assay; assay type: binding; set-up: His6 (N); settings: displacement of Atto565-lenalidomide from DDB1ΔB-CRBN; FIGS. 1, 4, 6A, 7
Description: Conditions for CRBN Fluorescence Polarization (FP) displacement assay: Atto565-conjugated lenalidomide (10 nM) was mixed with increasing concentration of purified his6-DDB1AB-his6—CRBN (10 μM final top concentration, 2-fold, 23-point dilution and DMSO control) in 384-well microplates (Corning, 4514) and incubated for 15 minutes (min) at room temperature (rt). The change in fluorescence polarization was monitored using a PHERAstar® FS microplate reader (BMG Labtech) for 20 min in 120 s cycles. The Atto565-lenalidomide bound fraction was calculated and the Kd was obtained from a fit in GraphPad Prism 7. Compounds in Atto565-Lenalidomide displacement assay were dispensed in a 384-well microplate (Corning®, 4514) using D300e Digital Dispenser (HP) normalized to 2% DMSO into 10 nM Atto565-Leanlidomide, 100 nM DDB1ΔB-CRBN, 50 mM Tris pH 7.5, 200 mM NaCl, 0.1% Pluronic® F-68 solution (Sigma), 0.5 mg/ml BSA (Sigma) containing 2% DMSO (4% DMSO final). The change in fluorescence polarization was monitored using a PHERAstar® FS microplate reader (BMG Labtech) for 20 min in 200 s cycles. IC50 values estimated using variable slope equation in GraphPad Prism 7.

CRBN [2] = target: T2, CRBN; test: Assay for CRBN binding in the cell, 24 hours treatment (FIG. 3); assay type: cell-based; set-up: endogenous in cells; settings: 293T WT cells (legend also says Jurkat WT)
Description: (§4) The results of an assay for CRBN binding (and degradation of IKZF or actin) upon treatment for 24 hours with exemplary compounds Qi-01-68, JADA53, and positive control lenalidomide (at the indicated concentrations in μM) in 293T WT cells (homo sapiens kidney cell line; wild type) are shown in FIG. 3.

IKZF1 [3] = target: T3, IKZF1 (Homo sapiens, UniProt Q13422+Q96SW2); test: Degradation of IKZF upon 24 hours treatment (FIG. 3); assay type: cell-based; set-up: endogenous in cells; settings: 293T WT cells (legend also says Jurkat WT)
Description: as §4

IKZF1 [4] = target: T3, IKZF1; test: 24 hour IKZF Western Blot in Jurkat cells (FIG. 5), IKZF1; assay type: cell-based; set-up: endogenous in cells; host or cells: Jurkat
Description: as §1, §2, §3

T3 sequence (Q13422 whole entry): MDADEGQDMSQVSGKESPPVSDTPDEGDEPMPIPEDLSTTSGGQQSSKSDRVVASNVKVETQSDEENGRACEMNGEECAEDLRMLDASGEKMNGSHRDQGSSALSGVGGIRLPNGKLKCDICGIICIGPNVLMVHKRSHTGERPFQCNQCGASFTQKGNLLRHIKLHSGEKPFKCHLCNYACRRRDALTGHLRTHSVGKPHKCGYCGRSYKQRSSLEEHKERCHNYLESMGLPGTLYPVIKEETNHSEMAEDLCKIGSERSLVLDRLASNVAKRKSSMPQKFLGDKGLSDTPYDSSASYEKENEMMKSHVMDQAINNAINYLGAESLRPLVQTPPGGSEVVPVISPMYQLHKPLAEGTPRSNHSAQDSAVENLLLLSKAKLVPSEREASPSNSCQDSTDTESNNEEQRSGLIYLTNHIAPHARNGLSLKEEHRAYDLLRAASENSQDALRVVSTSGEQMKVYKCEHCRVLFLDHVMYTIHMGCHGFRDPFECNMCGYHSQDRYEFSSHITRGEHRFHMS
T3 sequence (Q96SW2 whole entry): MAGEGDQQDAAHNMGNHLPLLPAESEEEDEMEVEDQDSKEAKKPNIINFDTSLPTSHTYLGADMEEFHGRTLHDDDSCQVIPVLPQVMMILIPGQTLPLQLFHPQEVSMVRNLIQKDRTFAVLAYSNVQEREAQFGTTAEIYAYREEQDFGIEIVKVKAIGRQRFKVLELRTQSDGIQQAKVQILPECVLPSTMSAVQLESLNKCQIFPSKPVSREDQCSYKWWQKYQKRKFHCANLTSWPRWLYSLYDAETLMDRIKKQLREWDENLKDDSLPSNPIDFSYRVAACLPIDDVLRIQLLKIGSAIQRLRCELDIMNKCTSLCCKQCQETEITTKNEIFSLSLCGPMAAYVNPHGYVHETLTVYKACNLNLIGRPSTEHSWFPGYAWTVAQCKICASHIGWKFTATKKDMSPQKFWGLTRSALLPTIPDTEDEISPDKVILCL
T3 sequence (Q16531 whole entry partner): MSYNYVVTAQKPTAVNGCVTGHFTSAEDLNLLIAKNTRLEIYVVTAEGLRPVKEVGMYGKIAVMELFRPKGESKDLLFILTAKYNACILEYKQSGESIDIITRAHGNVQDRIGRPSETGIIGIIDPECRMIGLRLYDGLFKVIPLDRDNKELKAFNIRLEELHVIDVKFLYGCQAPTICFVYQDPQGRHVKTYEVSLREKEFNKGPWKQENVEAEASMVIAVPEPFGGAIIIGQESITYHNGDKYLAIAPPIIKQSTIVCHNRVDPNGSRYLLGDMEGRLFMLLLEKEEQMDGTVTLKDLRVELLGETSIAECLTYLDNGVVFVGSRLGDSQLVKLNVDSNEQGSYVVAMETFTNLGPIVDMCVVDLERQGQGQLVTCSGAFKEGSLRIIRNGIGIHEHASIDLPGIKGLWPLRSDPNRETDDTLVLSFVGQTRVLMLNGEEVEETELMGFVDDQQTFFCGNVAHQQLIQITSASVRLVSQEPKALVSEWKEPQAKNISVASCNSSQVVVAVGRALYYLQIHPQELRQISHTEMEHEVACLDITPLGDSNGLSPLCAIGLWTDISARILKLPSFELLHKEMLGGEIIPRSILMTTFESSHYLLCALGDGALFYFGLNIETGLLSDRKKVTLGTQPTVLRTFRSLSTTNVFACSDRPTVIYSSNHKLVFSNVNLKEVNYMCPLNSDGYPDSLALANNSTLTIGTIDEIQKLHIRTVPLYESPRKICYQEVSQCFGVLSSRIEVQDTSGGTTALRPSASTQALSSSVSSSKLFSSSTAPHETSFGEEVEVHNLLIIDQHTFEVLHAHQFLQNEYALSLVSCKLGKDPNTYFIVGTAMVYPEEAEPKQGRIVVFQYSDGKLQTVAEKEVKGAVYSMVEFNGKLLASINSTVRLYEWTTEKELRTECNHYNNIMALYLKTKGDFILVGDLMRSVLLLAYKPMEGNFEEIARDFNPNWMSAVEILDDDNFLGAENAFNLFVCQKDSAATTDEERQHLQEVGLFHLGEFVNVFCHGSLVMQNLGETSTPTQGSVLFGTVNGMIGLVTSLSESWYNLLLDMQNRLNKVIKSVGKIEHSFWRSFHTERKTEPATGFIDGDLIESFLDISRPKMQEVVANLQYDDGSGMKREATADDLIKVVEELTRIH
T2 sequence (Q96SW2 whole entry): as the sequence (Q96SW2 whole entry) above
T1 sequence (Q9UKT9 whole entry): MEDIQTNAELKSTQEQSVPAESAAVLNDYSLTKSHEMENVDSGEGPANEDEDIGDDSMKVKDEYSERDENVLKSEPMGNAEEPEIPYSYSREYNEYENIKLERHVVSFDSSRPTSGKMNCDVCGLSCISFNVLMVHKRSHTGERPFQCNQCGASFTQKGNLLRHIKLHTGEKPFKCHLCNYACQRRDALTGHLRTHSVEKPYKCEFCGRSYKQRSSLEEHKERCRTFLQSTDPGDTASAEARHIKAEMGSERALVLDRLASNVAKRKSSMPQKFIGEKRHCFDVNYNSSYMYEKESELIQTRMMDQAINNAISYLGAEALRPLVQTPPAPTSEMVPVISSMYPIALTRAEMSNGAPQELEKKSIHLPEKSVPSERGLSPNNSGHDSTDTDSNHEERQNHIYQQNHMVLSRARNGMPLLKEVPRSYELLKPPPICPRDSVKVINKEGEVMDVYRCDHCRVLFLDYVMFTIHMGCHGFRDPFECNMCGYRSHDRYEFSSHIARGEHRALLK
T1 sequence (Q96SW2 whole entry): as the sequence (Q96SW2 whole entry) above
T1 sequence (Q16531 whole entry partner): as the sequence (Q16531 whole entry partner) above

degradation of IKZF3 in cells (Western Blot) (IKZF3): degraded
CRBN binding activity (FP displacement) (CRBN [1]): binds CRBN
binding of target CRBN in the cell (CRBN [2]): good binding
degradation of IKZF1 in cells (Western Blot) (IKZF1 [4]): degraded
Compound: Cc1[nH]c2c(-c3cnn(-c4cc(OCCN)ccn4)c3)cnn2c(=O)c1C(C)C [JADA53]
degradation of IKZF / IKZF1 in cell (IKZF1 [3]): can degrade IKZF; also recorded: degraded IKZF
